Measured values from PubChem BioAssay (NCI).
Values joined by “and” are separate entries in the source; they are usually repeats but may differ in a detail not shown here. Equal values may be shown once.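 How tested: cells in 96-well plates exposed to compound for 48 hours at five concentrations. At the GI50, growth is halved. TGI: total growth inhibition.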

Experiments:
Experiment in all cases: DTP human tumour cell line panel, 48 h
BT-549 breast = system: BT-549 breast
SR leukemia = system: SR leukemia
HOP-62 NSCLC = system: HOP-62 NSCLC
IGROV1 ovarian = system: IGROV1 ovarian
RXF 393 renal = system: RXF 393 renal
K-562 leukemia = system: K-562 leukemia
PC-3 prostate = system: PC-3 prostate
SNB-75 CNS = system: SNB-75 CNS
A498 renal = system: A498 renal
OVCAR-5 ovarian = system: OVCAR-5 ovarian

Row | SMILES | TGI (BT-549 breast) | TGI (SR leukemia) | TGI (HOP-62 NSCLC) | TGI (IGROV1 ovarian) | TGI (RXF 393 renal) | TGI (K-562 leukemia) | TGI (PC-3 prostate) | TGI (SNB-75 CNS) | TGI (A498 renal) | TGI (OVCAR-5 ovarian) | GI50 (BT-549 breast) | GI50 (SR leukemia) [µM] | GI50 (HOP-62 NSCLC) | GI50 (IGROV1 ovarian) | GI50 (RXF 393 renal) | GI50 (K-562 leukemia) [µM] | GI50 (PC-3 prostate) | GI50 (SNB-75 CNS) | GI50 (A498 renal) | GI50 (OVCAR-5 ovarian) [µM]
1 | CC(C)(O)CCC(O)C(C)(O)C1CCC2(O)C3=CC(=O)C4(O)CC(O)C(O)CC4(C)C3CCC12C (stereo unspecified) (tested in a mixture with another compound) | > 100 µM | > 100 µM | > 100 µM | > 100 µM | > 100 µM | > 100 µM | > 100 µM | > 100 µM | > 100 µM | > 100 µM | – | – | – | – | – | – | – | – | – | –
2 | COc1cc(N=Nc2cccc(S(N)(=O)=O)c2)c2ccccc2c1N | 20.7 µM | 35.8 µM | 21.8 µM | 28.4 µM | 33.6 µM | 37.7 µM | 23.9 µM | 4.56 µM | 34.7 µM | 33.3 µM | – | – | – | – | – | – | – | – | – | –
3 | Cc1[nH]n(-c2ccccc2)c(=O)c1C(=O)c1ccccc1 | > 25 µM | > 25 µM | > 25 µM | > 25 µM | > 25 µM | > 25 µM | > 25 µM | > 25 µM | > 25 µM | > 25 µM | > 25 µM | > 21 | > 25 µM | > 15.4 µM | > 25 µM | > 21.3 | 19.7 µM | > 25 µM | > 6.04 µM | > 25
4 | N#Cc1ncc(N2C(=O)C3(CCC3)N(c3ccc(OC4CCNCC4)nc3)C2=S)cc1C(F)(F)F | 26 µM | 21.1 µM | 67.4 µM | 36.3 µM | 25.8 µM | 34.4 µM | 28.9 µM | 50.1 µM | 32.7 µM | 46.8 µM | 12.9 µM | 3.37 | 25.2 µM | 17.1 µM | 12.1 µM | 5.84 | 13.9 µM | 15.4 µM | 12.2 µM | 17.3
5 | N#CC1CCc2c(c(-c3cn[nH]c3C(F)(F)F)nc3c(F)cc4[nH]ncc4c23)C1 (stereo unspecified) | 12.9 µM | 59.1 µM | 33.7 µM | 8.79 µM | 7.3 µM | > 100 µM | > 100 µM | 8.96 µM | 6.75 µM | 57.7 µM | 3.16 µM | 2.92 | 6.09 µM | 2.46 µM | 2.39 µM | 9.53 | 9.19 µM | 3.38 µM | 2.09 µM | 13.7
6 | COc1ccc(/C=C/c2cnc3ccccc3n2)cc1OC | > 100 µM | > 100 µM | > 100 µM | > 100 µM | > 100 µM | > 100 µM | > 100 µM | > 100 µM | > 100 µM | > 100 µM | – | – | – | – | – | – | – | – | – | –
7 | C[C@H]1CC2=CC(=O)CC[C@]2(C)[C@H]2CC[C@@]3(C)[C@@H](CC[C@]3(C)O)[C@H]12 | 71.9 µM | 55.5 µM | > 76.1 µM | > 73.3 µM | 76.9 µM | > 88.1 µM | 99.7 µM | > 100 µM | > 82.8 µM | > 100 µM | 24.7 µM | 21.7 | 33.5 µM | 27.3 µM | 24.8 µM | 24.7 | 8.65 µM | 40.2 µM | 28.2 µM | 55.9
8 | O=[N+]([O-])c1ccc(NC(=S)N/N=C(\c2ccccc2)c2ccccn2)cc1 | 3.01 µM | 2.98 µM and > 27.4 µM | 2.98 µM and 1.62 µM | 3.18 µM and 3.43 µM | 2.83 µM and 3.06 µM | 2.41 µM and 3.82 µM | 2.91 µM and 2.54 µM | 3.76 µM | 2.71 µM and 3.21 µM | 2.58 µM and 4.58 µM | – | 0.0286 | 1.3 µM | – | – | 0.00498 | 1.16 µM | – | 1.41 µM | 0.0772
9 | O=c1oc2cc(OS(=O)(=O)c3ccccc3)ccc2c2c1CCCCC2 | > 100 µM | > 100 µM | > 100 µM | > 100 µM | > 100 µM | > 100 µM | > 100 µM | > 100 µM | > 100 µM | > 100 µM | 5.44 µM | 3.01 | > 100 µM | > 100 µM | 4.55 µM | 4.06 | 2.61 µM | 16.9 µM | > 100 µM | > 100
10 | O=C(Nc1cccc([N+](=O)[O-])c1)c1cc2ccccc2cc1O | 5.39 µM | 8.17 µM | 3.72 µM | > 26.1 µM | 9.05 µM | 11 µM | > 30.5 µM | 55.2 µM | 6.19 µM | 10.3 µM | 1.55 µM | 1.46 | 1.19 µM | 1.3 µM | 2.57 µM | 0.845 | 1.49 µM | 2.84 µM | 1.41 µM | 2.55
11 | Cc1nc2sc(C(=O)Nc3cccc(Cl)c3C)c(N)c2cc1C(C)O (stereo unspecified) | > 32.3 µM | > 51.7 µM | > 100 µM | > 69.6 µM | 18.1 µM | > 38.5 µM | > 100 µM | > 42.1 µM | 0.544 µM | > 74.8 µM | 0.475 µM | 0.0418 | 0.53 µM | 0.414 µM | 0.189 µM | 0.0459 | 0.286 µM | 0.097 µM | 0.0173 µM | 0.7
12 | CC(C)(F)C[C@H](N[C@@H](c1ccc(-c2ccc(S(C)(=O)=O)cc2)cc1)C(F)(F)F)C(=O)NC1(C#N)CC1 | 55 µM and 82.8 µM | > 100 µM | 40.7 µM and 53.5 µM | 55 µM and 91.2 µM | 18 µM and 45.2 µM | > 100 µM | 55 µM and > 100 µM | 29.8 µM and 39.4 µM | 55 µM and > 100 µM | > 100 µM | 8.65 µM and 28.2 µM | 93.1 | 12.2 µM and 22.6 µM | 33.2 µM and 30.2 µM | 7.14 µM and 20.5 µM | > 100 | 36.9 µM and 27.9 µM | 7.51 µM and 16.4 µM | 33.6 µM and 28 µM | > 100
13 | NC(=S)N/N=C\c1nccc2c(C(F)(F)C(F)(F)C(F)(F)F)cccc12 | 11.7 µM | > 32.4 µM | 1.25 µM | 1.93 µM | 1.26 µM | > 100 µM | > 22.5 µM | 2.87 µM | 2.1 µM | 16.8 µM | 0.313 µM | 0.0433 | 0.0752 µM | 0.223 µM | 0.113 µM | 0.346 | 0.0661 µM | 0.124 µM | 0.464 µM | 0.123
14 | COc1ccc(S(=O)(=O)n2c3ccccc3n3ncc(-c4nnc(C)o4)c23)cc1 | 20 µM | > 100 µM | > 85.5 µM | > 67.1 µM | 3.97 µM | > 100 µM | > 100 µM | 0.937 µM | 1.9 µM | > 100 µM | 0.516 µM | 0.77 | 0.566 µM | 0.634 µM | 0.319 µM | 0.314 | 0.478 µM | 0.211 µM | 0.298 µM | 2.1
15 | FC(F)(F)c1cc(NC2=NCCN=C(Nc3cc(C(F)(F)F)cc(C(F)(F)F)c3)SS2)cc(C(F)(F)F)c1 | 19.1 µM | 20.4 µM | 31.3 µM | 26.3 µM | 11.2 µM | 17.6 µM | 12.1 µM | 45.6 µM | 9.68 µM | 19.7 µM | 6.2 µM | 3.76 | 13.1 µM | 6.04 µM | 2.66 µM | 3.58 | 3 µM | 9.35 µM | 2.24 µM | 5.94
16 | CC(C)N(Cc1ccccc1)S(=O)(=O)c1n[nH]c(C(C)(C)C)n1 | > 100 µM | > 100 µM | > 100 µM | > 100 µM | > 100 µM | > 100 µM | > 100 µM | > 100 µM | > 100 µM | > 100 µM | – | – | – | – | – | – | – | – | – | –
17 | C#CCOc1cccc(Nc2ncc3ncn(C4CCN(C(=O)CCl)C4)c3n2)c1 (stereo unspecified) | > 62.5 µM | > 62.5 µM | > 62.5 µM | > 62.5 µM | > 62.5 µM | > 62.5 µM | > 62.5 µM | > 62.5 µM | > 62.5 µM | > 62.5 µM | 18.3 µM | 7.72 | > 62.5 µM | 6.79 µM | > 62.5 µM | 17.9 | > 62.5 µM | > 62.5 µM | > 62.5 µM | > 62.5
18 | O=c1[nH]cnc2nc(-c3ccc(N(CCCl)CCCl)cc3)[nH]c12 | > 100 µM | > 100 µM | 63.8 µM | > 100 µM | 50.7 µM | > 100 µM | > 100 µM | 74.2 µM | 70.3 µM | > 100 µM | 84.8 µM | > 100 | 10.7 µM | 26.9 µM | 15.8 µM | 1.9 | > 100 µM | 18.1 µM | 22.2 µM | 30.1
